Experimental data from patent US6544985B2, “Dihydro-benzo [b][1,4]diazepin-2-one derivatives” (Hoffman-La Roche Inc., priority 2001, dated 2003).

SMILES | melting point
CCN(C)c1cc2c(cc1Cl)NC(=O)CC(c1cccc(-c3nc(CO)co3)c1)=N2 [Example 187, 8-Chloro-7-(ethyl-methyl-amino)-4-[3-(4-hydroxymethyl-oxazol-2-yl)-phenyl]-1,3-dihydro-benzo[b][1,4]diazepin-2-one] | 165 to 166 °C
CCCN(C)c1cc2c(cc1Cl)NC(=O)CC(c1cccc(-c3nc(CO)co3)c1)=N2 [Example 188, 8-Chloro-4-[3-(4-hydroxymethyl-oxazol-2-yl)-phenyl]-7-(methyl-propyl-amino)-1,3-dihydro-benzo[b][1,4]diazepin-2-one] | 166 to 167 °C
CC(C)N(C)c1cc2c(cc1Cl)NC(=O)CC(c1cccc(-c3nc(CO)co3)c1)=N2 [Example 189, 8-Chloro-4-[3-(4-hydroxymethyl-oxazol-2-yl)-phenyl]-7-(isopropyl-methyl-amino)-1,3-dihydro-benzo[b][1,4]diazepin-2-one] | 143 to 145 °C
CC(C)CN(C)c1cc2c(cc1Cl)NC(=O)CC(c1cccc(-c3nc(CO)co3)c1)=N2 [Example 190, 8-Chloro-4-[3-(4-hydroxymethyl-oxazol-2-yl)-phenyl]-7-(isobutyl-methyl-amino)-1,3-dihydro-benzo[b][1,4]diazepin-2-one] | 166 to 167 °C
CNCc1csc(-c2cccc(C3=Nc4cc(N(C)C)c(Cl)cc4NC(=O)C3)c2)n1 [Example 191, 8-Chloro-7-dimethylamino-4-[3-(4-methylaminomethyl-thiazol-2-yl)-phenyl]-1,3-dihydro-benzo[b][1,4]diazepin-2-one] | 129 to 130 °C
CN(C)c1cc2c(cc1Cl)NC(=O)CC(c1cccc(-c3nc(CN4CCOCC4)cs3)c1)=N2 [Example 192, 8-Chloro-7-dimethylamino-4-[3-(4-morpholin-4-ylmethyl-thiazol-2-yl)-phenyl]-1,3-dihydro-benzo[b][1,4]diazepin-2-one] | 138 to 143 °C
CN(C)c1cc2c(cc1Cl)NC(=O)CC(c1cccc(-c3csc(CO)n3)c1)=N2 [Example 193, 8-Chloro-7-dimethylamino-4-[3-(2-hydroxymethyl-thiazol-4-yl)-phenyl]-1,3-dihydro-benzo[b][1,4]diazepin-2-one] | 176 to 178 °C
CN(C)c1cc2c(cc1Cl)NC(=O)CC(c1cccc(-c3csc(N)n3)c1)=N2 [Example 194, 4-[3-(2-Amino-thiazol-4-yl)-phenyl]-8-chloro-7-dimethylamino-1,3-dihydro-benzo[b][1,4]diazepin-2-one] | 247 to 248 °C
CN(C)c1cc2c(cc1Cl)NC(=O)CC(c1cccc(-c3csc(NC(=N)N)n3)c1)=N2 [Example 196, N-{4-[3-(7-Chloro-8-dimethylamino-4-oxo-4,5-dihydro-3H-benzo[b][1,4]diazepin-2-yl)-phenyl]-thiazol-2-yl}-guanidine] | 221 °C (dec.)
CN(C)c1cc2c(cc1Cl)NC(=O)CC(c1cccc(-c3csc(Nc4ccncc4)n3)c1)=N2 [Example 197, 8-Chloro-7-dimethylamino-4-{3-[2-(pyridin-4-ylamino)-thiazol-4-yl]-phenyl}-1,3-dihydro-benzo[b][1,4]diazepin-2-one] | 231 to 234 °C
CCCN(C)c1cc2c(cc1Cl)NC(=O)CC(c1cccc(-c3coc(C)n3)c1)=N2 [Example 198, 8-Chloro-4-[3-(2-methyl-oxazol-4-yl)-phenyl]-7-(methyl-propyl-amino)-1,3-dihydro-benzo[b][1,4]diazepin-2-one] | 163 to 164 °C
CCCN(C)c1cc2c(cc1C)NC(=O)CC(c1cccc(-c3nc(CO)co3)c1)=N2 [Example 200, 4-[3-(4-Hydroxymethyl-oxazol-2-yl)-phenyl]-8-methyl-7-(methyl-propyl-amino)-1,3-dihydro-benzo[b][1,4]diazepin-2-one] | 200 to 202 °C
CN(C)c1cc2c(cc1C(F)(F)F)NC(=O)CC(c1cccc(-c3nnc(CCO)o3)c1)=N2 [Example 207, 7-Dimethylamino-4-{3-[5-(2-hydroxy-ethyl)-[1,3,4]oxadiazol-2-yl]-phenyl}-8-trifluoromethyl-1,3-dihydro-benzo[b][1,4]diazepin-2-one] | 237 °C (dec.)
CN(C)c1cc2c(cc1C(F)(F)F)NC(=O)CC(c1cccc(-c3cocn3)c1)=N2 [Example 208, 7-Dimethylamino-4-(3-oxazol-4-yl-phenyl)-8-trifluoromethyl-1,3-dihydro-benzo[b][1,4]diazepin-2-one] | 218 to 219 °C

The next lines start with the values.

melting point | SMILES
136 to 137 °C | CCN(C)c1cc2c(cc1Cl)NC(=O)CC(c1cccc(-c3nc(CO)cs3)c1)=N2 [Example 183, 8-Chloro-7-(ethyl-methyl-amino)-4-[3-(4-hydroxymethyl-thiazol-2-yl)-phenyl]-1,3-dihydro-benzo[b][1,4]diazepin-2-one]
211 to 213 °C | CCCN(C)c1cc2c(cc1Cl)NC(=O)CC(c1cccc(-c3nc(CO)cs3)c1)=N2 [Example 184, 8-Chloro-4-[3-(4-hydroxymethyl-thiazol-2-yl)-phenyl]-7-(methyl-propyl-amino)-1,3-dihydro-benzo[b][1,4]diazepin-2-one]
193 to 195 °C | CC(C)N(C)c1cc2c(cc1Cl)NC(=O)CC(c1cccc(-c3nc(CO)cs3)c1)=N2 [Example 185, 8-Chloro-4-[3-(4-hydroxymethyl-thiazol-2-yl)-phenyl]-7-(isopropyl-methyl-amino)-1,3-dihydro-benzo[b][1,4]diazepin-2-one]
222 to 224 °C | CCCN(C)c1cc2c(cc1C)NC(=O)CC(c1cccc(-c3nc(CO)cs3)c1)=N2 [Example 199, 4-[3-(4-Hydroxymethyl-thiazol-2-yl)-phenyl]-8-methyl-7-(methyl-propyl-amino)-1,3-dihydro-benzo[b][1,4]diazepin-2-one]
198 to 199 °C | CN(C)c1cc2c(cc1C(F)(F)F)NC(=O)CC(c1cccc(-c3nc(CO)cs3)c1)=N2 [Example 201, 7-Dimethylamino-4-[3-(4-hydroxymethyl-thiazol-2-yl)-phenyl]-8-trifluoromethyl-1,3-dihydro-benzo[b][1,4]diazepin-2-one]
197 to 198 °C | CN(C)c1cc2c(cc1C(F)(F)F)NC(=O)CC(c1cccc(-c3nc(CO)co3)c1)=N2 [Example 202, 7-Dimethylamino-4-[3-(4-hydroxymethyl-oxazol-2-yl)-phenyl]-8-trifluoromethyl-1,3-dihydro-benzo[b][1,4]diazepin-2-one]
177 to 180 °C | CCCN(C)c1cc2c(cc1C(F)(F)F)NC(=O)CC(c1cccc(-c3nc(CO)cs3)c1)=N2 [Example 203, 4-[3-(4-Hydroxymethyl-thiazol-2-yl)-phenyl]-7-(methyl-propyl-amino)-8-trifluoromethyl-1,3-dihydro-benzo[b][1,4]diazepin-2-one]
234 to 237 °C | CN(C)c1cc2c(cc1C(F)(F)F)NC(=O)CC(c1cccc(-c3nnc(CCO)s3)c1)=N2 [Example 205, 7-Dimethylamino-4-{3-[5-(2-hydroxy-ethyl)-[1,3,4]thiadiazol-2-yl]-phenyl}-8-trifluoromethyl-1,3-dihydro-benzo[b][1,4]diazepin-2-one]
200 °C (dec.) | CN(C)c1cc2c(cc1C(F)(F)F)NC(=O)CC(c1cccc(-c3cscn3)c1)=N2 [Example 209, 7-Dimethylamino-4-(3-thiazol-4-yl-phenyl)-8-trifluoromethyl-1,3-dihydro-benzo[b][1,4]diazepin-2-one]
